Measured values reported in patent publication US12539292B2, “BRM targeting compounds and associated methods of use” (Arvinas Operations, Inc., priority 2018, dated 2026).

Biological target: T1, BRM (Homo sapiens, UniProt P51531)
T1 construct: In-Cell Western Screen of BRM Degradation in SW1573 Cells; endogenous in cells; host or cells: SW1573
Experiment: In-cell Western screen of BRM degradation in SW1573 cells (Dmax and DC50)
Format: cell-based
Settings: BRM degradation, SW1573 cells; for DC50: read-out: DC50; for Dmax: when tested at the top concentration of between 0.3 and 10 μM, read-out: Dmax (%) (% degraded)
Method in brief: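 Overnight compound treatment (18-20 h, final DMSO 0.1%) of SW1573 cells in DMEM with 10% FBS precedes fixation and in-cell Western staining with 800/680 nm dye-labelled secondaries. Plate images give DC50 and maximal degradation.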

T1 sequence (P51531 whole entry): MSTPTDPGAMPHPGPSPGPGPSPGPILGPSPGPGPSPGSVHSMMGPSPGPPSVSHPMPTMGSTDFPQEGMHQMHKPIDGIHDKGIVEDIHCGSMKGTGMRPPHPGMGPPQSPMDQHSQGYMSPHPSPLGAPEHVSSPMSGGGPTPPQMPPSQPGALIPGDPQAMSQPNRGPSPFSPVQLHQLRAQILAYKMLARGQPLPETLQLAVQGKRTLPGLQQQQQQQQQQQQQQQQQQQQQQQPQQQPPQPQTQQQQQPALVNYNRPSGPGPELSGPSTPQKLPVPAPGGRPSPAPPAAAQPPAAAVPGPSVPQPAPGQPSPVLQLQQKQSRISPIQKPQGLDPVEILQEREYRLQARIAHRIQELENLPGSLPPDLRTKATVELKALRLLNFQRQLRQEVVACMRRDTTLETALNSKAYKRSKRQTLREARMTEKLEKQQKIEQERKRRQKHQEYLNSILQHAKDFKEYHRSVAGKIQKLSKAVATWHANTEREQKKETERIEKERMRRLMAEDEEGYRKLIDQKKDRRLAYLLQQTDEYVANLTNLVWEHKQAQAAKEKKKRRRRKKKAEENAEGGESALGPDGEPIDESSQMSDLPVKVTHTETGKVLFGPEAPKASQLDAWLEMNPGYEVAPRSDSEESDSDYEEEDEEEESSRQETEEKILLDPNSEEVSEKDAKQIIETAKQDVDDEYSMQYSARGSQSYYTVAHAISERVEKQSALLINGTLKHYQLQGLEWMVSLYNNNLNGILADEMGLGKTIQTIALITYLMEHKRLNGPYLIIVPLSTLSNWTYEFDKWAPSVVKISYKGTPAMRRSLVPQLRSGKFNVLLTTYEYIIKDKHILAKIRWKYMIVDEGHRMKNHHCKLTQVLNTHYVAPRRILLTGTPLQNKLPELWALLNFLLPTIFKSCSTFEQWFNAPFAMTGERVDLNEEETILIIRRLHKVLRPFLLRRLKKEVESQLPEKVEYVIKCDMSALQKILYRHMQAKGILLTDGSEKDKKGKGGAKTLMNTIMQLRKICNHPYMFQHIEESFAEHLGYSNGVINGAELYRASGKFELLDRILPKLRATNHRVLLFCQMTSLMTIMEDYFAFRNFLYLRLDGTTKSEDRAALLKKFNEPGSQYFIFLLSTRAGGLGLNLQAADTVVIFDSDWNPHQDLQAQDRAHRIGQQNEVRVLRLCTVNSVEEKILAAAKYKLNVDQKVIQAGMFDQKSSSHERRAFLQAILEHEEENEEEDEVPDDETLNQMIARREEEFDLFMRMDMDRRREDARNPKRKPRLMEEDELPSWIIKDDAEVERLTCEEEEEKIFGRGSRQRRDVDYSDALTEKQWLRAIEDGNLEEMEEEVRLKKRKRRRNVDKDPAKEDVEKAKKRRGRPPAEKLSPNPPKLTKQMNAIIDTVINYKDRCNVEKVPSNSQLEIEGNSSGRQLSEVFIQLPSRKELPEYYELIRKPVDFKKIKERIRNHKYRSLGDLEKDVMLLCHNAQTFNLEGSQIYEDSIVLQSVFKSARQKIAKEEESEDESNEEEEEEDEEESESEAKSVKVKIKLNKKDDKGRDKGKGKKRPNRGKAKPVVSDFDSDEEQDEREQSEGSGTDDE

Compound | DC50 [nM] | Dmax [%]
Cc1ncsc1-c1ccc([C@H](C)NC(=O)[C@@H]2C[C@@H](O)CN2C(=O)[C@H](c2cc(OCCCc3ccc(C(C)n4cc(-c5cc(-c6ccccc6O)nnc5N)cn4)cc3)no2)C(C)C)cc1 (stereo partly drawn) [compound 59, (2S,4R)-1-((2S)-2-(3-(3-(4-(1-(4-(3-amino-6-(2-hydroxyphenyl)pyridazin-4-yl)-1H-pyrazol-1-yl)ethyl)phenyl)propoxy)isoxazol-5-yl)-3-methylbutanoyl)-4-hydroxy-N-((S)-1-(4-(4-methylthiazol-5-yl)phenyl)ethyl)pyrrolidine-2-carboxamide] | > 30 | > 75
Cc1ncsc1-c1ccc([C@H](C)NC(=O)[C@@H]2C[C@@H](O)CN2C(=O)[C@@H](c2cc(OCCCc3ccc(C(C)n4cc(-c5cc(-c6ccccc6O)nnc5N)cn4)cc3)no2)C(C)C)cc1 (stereo partly drawn) [compound 60, (2S,4R)-1-((2R)-2-(3-(3-(4-(1-(4-(3-amino-6-(2-hydroxyphenyl)pyridazin-4-yl)-1H-pyrazol-1-yl)ethyl)phenyl)propoxy)isoxazol-5-yl)-3-methylbutanoyl)-4-hydroxy-N-((S)-1-(4-(4-methylthiazol-5-yl)phenyl)ethyl)pyrrolidine-2-carboxamide] | < 2.5 | > 75
Cc1ncsc1-c1ccc([C@H](C)NC(=O)[C@@H]2C[C@@H](O)CN2C(=O)[C@@H](NC(=O)COCCCc2ccc(C(C)n3cc(-c4cc(-c5ccccc5O)nnc4N)cn3)cn2)C(C)(C)C)cc1 (stereo partly drawn) [compound 61, (2S,4R)-1-((2S)-2-(2-(3-(5-(1-(4-(3-amino-6-(2-hydroxyphenyl)pyridazin-4-yl)-1H-pyrazol-1-yl)ethyl)pyridin-2-yl)propoxy)acetamido)-3,3-dimethylbutanoyl)-4-hydroxy-N-((S)-1-(4-(4-methylthiazol-5-yl)phenyl)ethyl)pyrrolidine-2-carboxamide] | 10 to 30 | > 75
Cc1ncsc1-c1ccc([C@H](C)NC(=O)[C@@H]2C[C@@H](O)CN2C(=O)[C@@H](c2cc(OCCN3CCN(CCOCCn4cc(-c5cc(-c6ccccc6O)nnc5N)cn4)CC3)no2)C(C)C)cc1 [compound 62, (2S,4R)-1-((R)-2-(3-(2-(4-(2-(2-(4-(3-amino-6-(2-hydroxyphenyl)pyridazin-4-yl)-1H-pyrazol-1-yl)ethoxy)ethyl)piperazin-1-yl)ethoxy)isoxazol-5-yl)-3-methylbutanoyl)-4-hydroxy-N-((S)-1-(4-(4-methylthiazol-5-yl)phenyl)ethyl)pyrrolidine-2-carboxamide] | 2.5 to 10 | > 75
Cc1ncsc1-c1ccc([C@H](C)NC(=O)[C@@H]2C[C@@H](O)CN2C(=O)[C@H](c2cc(OCCOCCOCCCCN3CC4(C3)CN(c3cc(-c5ccccc5O)nnc3N)C4)no2)C(C)C)cc1 [compound 65, (2S,4R)-1-((S)-2-(3-(2-(2-(4-(6-(3-amino-6-(2-hydroxyphenyl)pyridazin-4-yl)-2,6-diazaspiro[3.3]heptan-2-yl)butoxy)ethoxy)ethoxy)isoxazol-5-yl)-3-methylbutanoyl)-4-hydroxy-N-((S)-1-(4-(4-methylthiazol-5-yl)phenyl)ethyl)pyrrolidine-2-carboxamide] | > 30 | –
Cc1ncsc1-c1ccc([C@H](C)NC(=O)[C@@H]2C[C@@H](O)CN2C(=O)[C@@H](c2cc(OCCOCCOCCCCN3CC4(C3)CN(c3cc(-c5ccccc5O)nnc3N)C4)no2)C(C)C)cc1 [compound 66, (2S,4R)-1-((R)-2-(3-(2-(2-(4-(6-(3-amino-6-(2-hydroxyphenyl)pyridazin-4-yl)-2,6-diazaspiro[3.3]heptan-2-yl)butoxy)ethoxy)ethoxy)isoxazol-5-yl)-3-methylbutanoyl)-4-hydroxy-N-((S)-1-(4-(4-methylthiazol-5-yl)phenyl)ethyl)pyrrolidine-2-carboxamide] | > 30 | > 75
Cc1ncsc1-c1ccc([C@H](C)NC(=O)[C@@H]2C[C@@H](O)CN2C(=O)[C@H](c2cc(OCCOCCOCCCCN3CCC4(CC3)CCN(c3cc(-c5ccccc5O)nnc3N)CC4)no2)C(C)C)cc1 [compound 67, (2S,4R)-1-((S)-2-(3-(2-(2-(4-(9-(3-amino-6-(2-hydroxyphenyl)pyridazin-4-yl)-3,9-diazaspiro[5.5]undecan-3-yl)butoxy)ethoxy)ethoxy)isoxazol-5-yl)-3-methylbutanoyl)-4-hydroxy-N-((S)-1-(4-(4-methylthiazol-5-yl)phenyl)ethyl)pyrrolidine-2-carboxamide] | > 30 | –
Cc1ncsc1-c1ccc([C@H](C)NC(=O)[C@@H]2C[C@@H](O)CN2C(=O)[C@@H](c2cc(OCCOCCOCCCCN3CCC4(CC3)CCN(c3cc(-c5ccccc5O)nnc3N)CC4)no2)C(C)C)cc1 [compound 68, (2S,4R)-1-((R)-2-(3-(2-(2-(4-(9-(3-amino-6-(2-hydroxyphenyl)pyridazin-4-yl)-3,9-diazaspiro[5.5]undecan-3-yl)butoxy)ethoxy)ethoxy)isoxazol-5-yl)-3-methylbutanoyl)-4-hydroxy-N-((S)-1-(4-(4-methylthiazol-5-yl)phenyl)ethyl)pyrrolidine-2-carboxamide] | 2.5 to 10 | > 75
Cc1ncsc1-c1ccc([C@H](C)NC(=O)[C@@H]2C[C@@H](O)CN2C(=O)[C@H](c2cc(OCC#Cc3ccc(O[C@H]4C[C@H](Oc5cc(N6C7CCC6CN(c6cc(-c8ccccc8O)nnc6N)C7)ccn5)C4)cn3)no2)C(C)C)cc1 [compound 69, (2S,4R)-1-((2S)-2-(3-((3-(5-((1r,3S)-3-((4-(3-(3-amino-6-(2-hydroxyphenyl)pyridazin-4-yl)-3,8-diazabicyclo[3.2.1]octan-8-yl)pyridin-2-yl)oxy)cyclobutoxy)pyridin-2-yl)prop-2-yn-1-yl)oxy)isoxazol-5-yl)-3-methylbutanoyl)-4-hydroxy-N-((S)-1-(4-(4-methylthiazol-5-yl)phenyl)ethyl)pyrrolidine-2-carboxamide] | 10 to 30 | > 75
Cc1ncsc1-c1ccc([C@H](C)NC(=O)[C@@H]2C[C@@H](O)CN2C(=O)[C@@H](c2cc(OCC#Cc3ccc(O[C@H]4C[C@H](Oc5cc(N6C7CCC6CN(c6cc(-c8ccccc8O)nnc6N)C7)ccn5)C4)cn3)no2)C(C)C)cc1 [compound 70, (2S,4R)-1-((2R)-2-(3-((3-(5-((1r,3R)-3-((4-(3-(3-amino-6-(2-hydroxyphenyl)pyridazin-4-yl)-3,8-diazabicyclo[3.2.1]octan-8-yl)pyridin-2-yl)oxy)cyclobutoxy)pyridin-2-yl)prop-2-yn-1-yl)oxy)isoxazol-5-yl)-3-methylbutanoyl)-4-hydroxy-N-((S)-1-(4-(4-methylthiazol-5-yl)phenyl)ethyl)pyrrolidine-2-carboxamide] | < 2.5 | > 75
Cc1ncsc1-c1ccc([C@H](C)NC(=O)[C@@H]2C[C@@H](O)CN2C(=O)[C@H](c2cc(OCCOCCOCCCCN3CC4(CCN(c5cc(-c6ccccc6O)nnc5N)CC4)C3)no2)C(C)C)cc1 [compound 71, (2S,4R)-1-((S)-2-(3-(2-(2-(4-(7-(3-amino-6-(2-hydroxyphenyl)pyridazin-4-yl)-2,7-diazaspiro[3.5]nonan-2-yl)butoxy)ethoxy)ethoxy)isoxazol-5-yl)-3-methylbutanoyl)-4-hydroxy-N-((S)-1-(4-(4-methylthiazol-5-yl)phenyl)ethyl)pyrrolidine-2-carboxamide] | > 30 | –
Cc1ncsc1-c1ccc([C@H](C)NC(=O)[C@@H]2C[C@@H](O)CN2C(=O)[C@@H](c2cc(OCCOCCOCCCCN3CC4(CCN(c5cc(-c6ccccc6O)nnc5N)CC4)C3)no2)C(C)C)cc1 [compound 72, (2S,4R)-1-((R)-2-(3-(2-(2-(4-(7-(3-amino-6-(2-hydroxyphenyl)pyridazin-4-yl)-2,7-diazaspiro[3.5]nonan-2-yl)butoxy)ethoxy)ethoxy)isoxazol-5-yl)-3-methylbutanoyl)-4-hydroxy-N-((S)-1-(4-(4-methylthiazol-5-yl)phenyl)ethyl)pyrrolidine-2-carboxamide] | 10 to 30 | > 75
Cc1ncsc1-c1ccc([C@H](C)NC(=O)[C@@H]2C[C@@H](O)CN2C(=O)[C@H](c2cc(OCCOCCOCCCCN3CCC4(CCN(c5cc(-c6ccccc6O)nnc5N)CC4)C3)no2)C(C)C)cc1 [compound 73, (2S,4R)-1-((S)-2-(3-(2-(2-(4-(8-(3-amino-6-(2-hydroxyphenyl)pyridazin-4-yl)-2,8-diazaspiro[4.5]decan-2-yl)butoxy)ethoxy)ethoxy)isoxazol-5-yl)-3-methylbutanoyl)-4-hydroxy-N-((S)-1-(4-(4-methylthiazol-5-yl)phenyl)ethyl)pyrrolidine-2-carboxamide] | > 30 | –
Cc1ncsc1-c1ccc([C@H](C)NC(=O)[C@@H]2C[C@@H](O)CN2C(=O)[C@@H](c2cc(OCCOCCOCCCCN3CCC4(CCN(c5cc(-c6ccccc6O)nnc5N)CC4)C3)no2)C(C)C)cc1 [compound 74, (2S,4R)-1-((R)-2-(3-(2-(2-(4-(8-(3-amino-6-(2-hydroxyphenyl)pyridazin-4-yl)-2,8-diazaspiro[4.5]decan-2-yl)butoxy)ethoxy)ethoxy)isoxazol-5-yl)-3-methylbutanoyl)-4-hydroxy-N-((S)-1-(4-(4-methylthiazol-5-yl)phenyl)ethyl)pyrrolidine-2-carboxamide] | 10 to 30 | > 75
Cc1nccn1-c1ccc([C@H](C)NC(=O)[C@@H]2C[C@@H](O)CN2C(=O)[C@H](c2cc(OCCN3CCN(CCOc4cc(N5C6CCC5CN(c5cc(-c7ccccc7O)nnc5N)C6)ccn4)CC3)no2)C(C)C)cc1 [compound 75, (2S,4R)-1-((2S)-2-(3-(2-(4-(2-((4-(3-(3-amino-6-(2-hydroxyphenyl)pyridazin-4-yl)-3,8-diazabicyclo[3.2.1]octan-8-yl)pyridin-2-yl)oxy)ethyl)piperazin-1-yl)ethoxy)isoxazol-5-yl)-3-methylbutanoyl)-4-hydroxy-N-((S)-1-(4-(2-methyl-1H-imidazol-1-yl)phenyl)ethyl)pyrrolidine-2-carboxamide] | 10 to 30 | > 75
